# Laboratory results taken from ChEMBL document CHEMBL4825684, “Design, synthesis and biological evaluation of N-anthraniloyl tryptamine derivatives as pleiotropic molecules for the therapy of malignant glioma” (Eur J Med Chem, 2021).
# Calls of active or inactive are those of the source. The rule behind the calls is not given here.
# What was measured:
# BV-2 = assay: Inhibition of MMP9 production in mouse BV-2 cells co-cultured with rat C6 glioma cells at 2 uM incubated for 24 hrs by Western blot analysis; format: functional, cell-based
# U-87 MG [1] = assay: Antiproliferative activity against human U-87 MG cells assessed as growth inhibition incubated for 72 hrs by CCK-8 assay; format: functional, cell-based, U-87MG ATCC
# [2] = target: Signal transducer and activator of transcription 3 (Homo sapiens) (UniProt P40763); assay: Inhibition of STAT3 nuclear translocation in human U251 cells incubated for 24 hrs by Hoechst staining based fluorescence confocal imaging analysis; format: cell-based; settings: U-251
# [3] = target: Tyrosine-protein kinase JAK2 (Homo sapiens) (UniProt O60674); assay: Inhibition JAK2 phosphorylation in human U-251 cells incubated up to 8 hrs by Western blot analysis; format: cell-based; settings: time hrs <=8
# [4] = target: Tyrosine-protein kinase JAK2 (Homo sapiens) (UniProt O60674); assay: Inhibition JAK2 phosphorylation in human U-87 MG cells incubated up to 8 hrs by Western blot analysis; format: cell-based; settings: time hrs <=8
# U-251 [5] = assay: Antiproliferative activity against human U-251 cells assessed as colony formation ratio at 4 uM measured after 24 hrs by plate clone formation assay relative to control; format: functional
# U-87 MG [6] = assay: Antiproliferative activity against human U-87 MG cells assessed as decrease in proliferation at 4 uM measured after 24 hrs by EdU assay relative to control; format: functional, cell-based; settings: U-87MG ATCC
# U-87 MG [7] = assay: Cell cycle arrest in human U-87 MG cells assessed as accumulation at G2/M phase at 8 uM incubated for 48 hrs by PI staining based flow cytometry assay (reference value: 8%); format: functional, U-87MG ATCC
# U-251 [8] = assay: Induction of apoptosis in human U-251 cells assessed as early apoptotic cells at 2 uM incubated for 48 hrs by […] double staining based flow cytometry assay (reference value: 0.73%); format: functional
# U-251 [9] = assay: Induction of apoptosis in human U-251 cells assessed as necrotic cells at 2 uM incubated for 48 hrs by […] double staining based flow cytometry assay (reference value: 1.32%); format: functional
# U-251 [10] = assay: Induction of apoptosis in human U-251 cells assessed as viable cells at 4 uM incubated for 48 hrs by […] double staining based flow cytometry assay (reference value: 96.6%); format: functional; settings: read-out: Activity
# U-251 [11] = assay: Induction of apoptosis in human U-251 cells assessed as early apoptotic cells at 4 uM incubated for 48 hrs by […] double staining based flow cytometry assay (reference value: 0.73%); format: functional
# U-251 [12] = assay: Induction of apoptosis in human U-251 cells assessed as late apoptotic cells at 4 uM incubated for 48 hrs by […] double staining based flow cytometry assay (reference value: 1.39%); format: functional
# U-251 [13] = assay: Induction of apoptosis in human U-251 cells assessed as viable cells at 8 uM incubated for 48 hrs by […] double staining based flow cytometry assay (reference value: 96.6%); format: functional; settings: read-out: Activity
# U-251 [14] = assay: Induction of apoptosis in human U-251 cells assessed as necrotic cells at 8 uM incubated for 48 hrs by […] double staining based flow cytometry assay (reference value: 1.32%); format: functional
# U-87 MG [15] = assay: Induction of apoptosis in human U-87 MG cells assessed as late apoptotic cells at 2 uM incubated for 48 hrs by […] double staining based flow cytometry assay (reference value: 0.61%); format: functional, U-87MG ATCC
# U-87 MG [16] = assay: Induction of apoptosis in human U-87 MG cells assessed as necrotic cells at 4 uM incubated for 48 hrs by Annexin VIM double staining based flow cytometry assay (reference value: 0.91%); format: functional, U-87MG ATCC
# U-87 MG [17] = assay: Induction of apoptosis in human U-87 MG cells assessed as late apoptotic cells at 8 uM incubated for 48 hrs by […] double staining based flow cytometry assay (reference value: 0.61%); format: functional, U-87MG ATCC
# U-87 MG [18] = assay: Induction of apoptosis in human U-87 MG cells assessed as necrotic cells at 8 uM incubated for 48 hrs by Annexin VIM double staining based flow cytometry assay (reference value: 0.91%); format: functional, U-87MG ATCC
# U-251 [19] = assay: Induction of apoptosis in human U-251 cells assessed as decrease in Bcl2/Bax ratio at 2 to 4 uM incubated for 48 hrs by Western blot analysis relative to control; format: functional, cell-based; settings: dose 2-4 µM
# U-251 [20] = assay: Induction of apoptosis in human U-251 cells assessed as increase in ROS generation at 1 to 4 uM incubated for 48 hrs […] relative to control; format: functional, cell-based; settings: dose 1-4 µM
# U-251 [21] = assay: Antimigratory activity against human U-251 cells assessed as inhibition of migration incubated for 24 hrs by matrigel trans well plate assay; format: functional, cell-based; settings: dose 1-4 µM
# U-87 MG [22] = assay: Anti-invasion activity against human U-87 MG cells assessed as inhibition of invasion incubated for 24 hrs by matrigel trans well plate assay; format: functional, cell-based; settings: U-87MG ATCC
# U-251 [23] = assay: Reduction in MMP9 expression in human U-251 cells incubated for 24 hrs by Western blot analysis; format: functional, cell-based; settings: dose 1-4 µM
# U-87MG ATCC = assay: Reduction in MMP9 expression in human U-87 MG cells incubated for 24 hrs by Western blot analysis; format: functional, cell-based; settings: dose 1-4 µM
# [24] = Acute toxicity in Kunming mouse assessed mortality at 1000 mg/kg, ip measured for 14 days; format: organism-based; settings: in vivo, 336 h, time 14 day
# [25] = Half life in Sprague-Dawley rat at 60 mg/kg, ip measured up to 24 hrs by LC-MS analysis; format: ADME, organism-based; settings: in vivo
# [26] = Cmax in Sprague-Dawley rat at 60 mg/kg, ip measured up to 24 hrs by LC-MS analysis; format: ADME, organism-based; parameters: route intraperitoneal, dose 60 mg/kg, time <=24; settings: in vivo
# [27] = Plasma concentration in Sprague-Dawley rat at 60 mg/kg, ip measured up to 24 hrs by LC-MS analysis; format: ADME, organism-based
# [28] = Drug uptake in Sprague-Dawley rat cerebrospinal fluid at 60 mg/kg, ip measured after 2 hrs by LC-MS analysis; format: ADME, organism-based; settings: read-out: Drug uptake
# [29] = Toxicity in rat C6 cells inoculated orthotopic Sprague-Dawley rat model at 50 mg/kg, ip twice a day administered for 25 days; format: organism-based; settings: in vivo, 600 h, time 25 day
# C6 [30] = assay: Antitumor activity against rat C6 cells inoculated orthotopic Sprague-Dawley rat model assessed as reduction tumor volume at 50 mg/kg, ip twice a day treated 3 days after tumor cell injection measured for 13 days after tumor implantation; format: functional, organism-based; settings: time 3.0 day
# C6 [31] = assay: Antitumor activity against rat C6 cells inoculated orthotopic Sprague-Dawley rat model assessed as tumor growth inhibition at 50 mg/kg, ip twice a day treated 3 days after tumor cell injection measured for 13 days after tumor implantation; format: functional; settings: 72 h, time 3 day, read-out: TGI
# C6 [32] = assay: Antitumor activity against rat C6 cells inoculated orthotopic Sprague-Dawley rat model assessed as increase in E-cadherin in tumor tissue at 50 mg/kg, ip twice a day treated 3 days after tumor cell injection measured for 13 days after tumor implantation by Western blot analysis; format: functional, organism-based; settings: time 3.0 day
# C6 [33] = assay: Antitumor activity against rat C6 cells inoculated orthotopic Sprague-Dawley rat model assessed as decrease in p-STAT3 in tumor tissue at 50 mg/kg, ip twice a day treated 3 days after tumor cell injection measured for 13 days after tumor implantation by Western blot analysis; format: functional, organism-based; settings: time 3.0 day
# [34] = Toxicity in rat C6 cells inoculated orthotopic Sprague-Dawley rat model assessed as body weight change at 50 mg/kg, ip twice a day administered for 13 days of tumor implantation; format: organism-based; settings: in vivo, 312 h, time 13 day
# C6 [35] = assay: Antitumor activity against rat C6 cells inoculated orthotopic Sprague-Dawley rat model assessed as tumor necrosis at 50 mg/kg, ip twice a day administered for 13 days of tumor implantation by hematoxylin-eosin staining analysis; format: functional, organism-based; settings: time 13.0 day
# Sequence of Tyrosine-protein kinase JAK2 (Homo sapiens) (O60674 whole entry): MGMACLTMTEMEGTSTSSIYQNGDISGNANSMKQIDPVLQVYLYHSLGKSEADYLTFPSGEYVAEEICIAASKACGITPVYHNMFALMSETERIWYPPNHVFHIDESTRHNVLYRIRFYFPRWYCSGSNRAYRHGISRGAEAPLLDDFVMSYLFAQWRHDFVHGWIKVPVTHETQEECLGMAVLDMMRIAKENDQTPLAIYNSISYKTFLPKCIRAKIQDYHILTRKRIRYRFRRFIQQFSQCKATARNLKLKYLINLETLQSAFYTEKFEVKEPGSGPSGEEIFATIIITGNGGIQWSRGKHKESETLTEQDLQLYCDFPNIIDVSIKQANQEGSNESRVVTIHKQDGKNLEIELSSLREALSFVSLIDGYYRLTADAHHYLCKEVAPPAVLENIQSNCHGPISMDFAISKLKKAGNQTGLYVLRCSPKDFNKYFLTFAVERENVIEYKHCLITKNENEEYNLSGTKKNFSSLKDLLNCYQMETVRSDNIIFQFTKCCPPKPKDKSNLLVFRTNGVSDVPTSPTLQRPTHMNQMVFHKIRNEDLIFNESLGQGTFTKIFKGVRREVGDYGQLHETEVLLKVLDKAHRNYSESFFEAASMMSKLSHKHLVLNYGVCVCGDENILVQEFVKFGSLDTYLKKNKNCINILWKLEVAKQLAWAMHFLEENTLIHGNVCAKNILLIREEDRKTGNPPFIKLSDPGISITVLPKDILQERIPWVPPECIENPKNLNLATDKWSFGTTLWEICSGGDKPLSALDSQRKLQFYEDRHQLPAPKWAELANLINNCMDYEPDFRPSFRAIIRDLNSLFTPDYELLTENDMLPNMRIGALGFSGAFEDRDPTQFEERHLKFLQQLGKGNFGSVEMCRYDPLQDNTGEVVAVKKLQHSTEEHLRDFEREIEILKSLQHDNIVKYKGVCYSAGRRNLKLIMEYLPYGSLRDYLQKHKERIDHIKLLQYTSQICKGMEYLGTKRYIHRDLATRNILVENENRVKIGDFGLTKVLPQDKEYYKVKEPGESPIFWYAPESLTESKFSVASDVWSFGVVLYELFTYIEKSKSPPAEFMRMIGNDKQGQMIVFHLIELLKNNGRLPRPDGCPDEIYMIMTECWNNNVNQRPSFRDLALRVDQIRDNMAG
# Sequence of Signal transducer and activator of transcription 3 (Homo sapiens) (P40763 whole entry): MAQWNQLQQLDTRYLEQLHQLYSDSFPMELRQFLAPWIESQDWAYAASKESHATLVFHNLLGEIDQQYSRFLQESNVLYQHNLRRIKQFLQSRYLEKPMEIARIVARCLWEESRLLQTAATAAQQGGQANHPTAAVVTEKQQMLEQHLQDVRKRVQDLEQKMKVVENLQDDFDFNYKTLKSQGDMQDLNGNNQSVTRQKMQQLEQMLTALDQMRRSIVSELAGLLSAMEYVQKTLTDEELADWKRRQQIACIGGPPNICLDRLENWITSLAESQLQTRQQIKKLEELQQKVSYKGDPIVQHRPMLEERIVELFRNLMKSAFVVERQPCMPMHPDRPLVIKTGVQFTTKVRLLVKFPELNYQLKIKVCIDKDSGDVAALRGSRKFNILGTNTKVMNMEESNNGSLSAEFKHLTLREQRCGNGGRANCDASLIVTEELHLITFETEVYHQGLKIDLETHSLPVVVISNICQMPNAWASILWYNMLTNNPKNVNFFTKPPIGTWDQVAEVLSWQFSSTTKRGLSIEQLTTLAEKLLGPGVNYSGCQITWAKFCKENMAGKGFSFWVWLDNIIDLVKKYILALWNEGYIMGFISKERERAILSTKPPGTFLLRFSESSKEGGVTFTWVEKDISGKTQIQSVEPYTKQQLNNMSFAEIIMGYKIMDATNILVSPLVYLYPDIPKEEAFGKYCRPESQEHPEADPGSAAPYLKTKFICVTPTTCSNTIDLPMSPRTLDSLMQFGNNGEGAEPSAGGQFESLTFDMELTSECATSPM
smiles,measurement,setting,value
COc1cc(Nc2ccccc2C(=O)NCCc2c[nH]c3ccccc23)cc(OC)c1OC,inhibition,BV-2,Active
same,IC50,U-87 MG [1],4.78 µM
same,inhibition,[2],Active
same,inhibition,[3],Active
same,inhibition,[4],Active
same,Activity,U-251 [5],5.33%
same,Activity,U-87 MG [6],Active
same,Activity,U-87 MG [7],68.2%
same,Activity,U-251 [8],4.93%
same,Activity,U-251 [9],4.28%
same,viability at 4 µM,U-251 [10],65.5%
same,Activity,U-251 [11],7.95%
same,Activity,U-251 [12],21.8%
same,viability at 8 µM,U-251 [13],56.6%
same,Activity,U-251 [14],7.24%
same,Activity,U-87 MG [15],1.53%
same,Activity,U-87 MG [16],1.86%
same,Activity,U-87 MG [17],7.44%
same,Activity,U-87 MG [18],1.1%
same,Activity,U-251 [19],Active
same,Activity,U-251 [20],Active
same,Activity,U-251 [21],Active
same,Activity,U-87 MG [22],Active
same,Activity,U-251 [23],Dose-Dependent Effect
same,Activity,U-87MG ATCC,Dose-Dependent Effect
same,Activity,[24],Non-Toxic
same,half-life,[25],11.4 h
same,Cmax,[26],1150 ng/mL
same,concentration at 24 h,[27],200 ng/mL
same,concentration at 2 h,[28],200 ng/mL
same,Activity,[29],Non-Toxic
same,Activity,C6 [30],Active
same,inhibition in vivo at 50 mg/kg,C6 [31],66%
same,Activity,C6 [32],Active
same,Activity,C6 [33],Active
same,Activity,[34],Non-Toxic
same,Activity,C6 [35],Active
